Measured values from US10253002B2, “Compounds and methods of treating infections” (Neoculi Pty Ltd., priority 2013, dated 2019).

Columns and labels:
[1] = system: MRSA; experiment: Broth microdilution MIC, Example 7 (NCL812 and analogues); format: cell-based, Staphylococcus aureus; details: MIC testing, two MRSA strains
Experimental: (§1) Minimum inhibitory concentrations (μg/ml) were determined using the broth microdilution method recommended by the Clinical and Laboratory Standards Institute (CLSI). MIC breakpoints were determined by visual assessment and then confirmed using an ELISA plate reader, measuring absorbance levels at 600 nm. Bacterial growth (turbidity) in the wells with antimicrobial was compared with the amount of growth (turbidity) in the growth-control well (containing no antimicrobial). All isolates were tested in duplicate, if there was a difference of greater than one two-fold dilution in the results, the test was repeated a third time. The purity of the isolates was closely monitored during testing by subculturing the prepared bacterial inoculum onto SBA (sheep blood agar). […] The MIC50, MIC20 and MIC range (minimum and maximum) were calculated for each of the bacterial groups.
(§2) MICs were determined against two MRSA strains, two VRE strains and one strain each of E. coli and Pseudomonas aeruginosa.

[2] = system: VRE; experiment: as above; format: cell-based, Enterococcus spp.; details: for activity against VRE among analogues: MIC testing, two VRE strains; for VRE: bioassay ranking
Experimental: as §1, §2

Row | SMILES | activity against MRSA among analogues [1] | activity against VRE among analogues [2] | VRE [2]
1 | CC(Nc1cc(NC(C)c2ccccc2)nc(N)n1)c1ccccc1 (stereo not drawn) [NCL184] | greatest activity | greatest activity | 32 µg/mL
2 | CC(Nc1cc(NC(C)c2ccccc2)ncn1)c1ccccc1 (stereo not drawn) [NCL183] | greatest activity | greatest activity | 
3 | Cl.OC/C(=N\Nc1cc(N/N=C(\CO)c2ccc(Cl)cc2)ncn1)c1ccc(Cl)cc1 [NCL189] | greatest activity | greatest activity | 
4 | CC(=NNC(=N)NN=C(C)c1ccc(N2CCNCC2)cc1)c1ccc(N2CCNCC2)cc1.Cl [NCL161] | greatest activity | greatest activity | 
5 | CSc1ccc(C=NNC(=N)NN=Cc2ccc(SC)cc2)cc1.Cl [NCL140] | greatest activity | greatest activity | 5 µg/mL
6 | C/C(=N\Nc1cc(N/N=C(\C)c2ccc(Cl)cc2)ncn1)c1ccc(Cl)cc1.Cl [NCL185] | greatest activity | greatest activity | 
7 | Cl.N=C(NN=Cc1csc2ccc(Cl)cc12)NN=Cc1csc2ccc(Cl)cc12 [NCL141] |  | greatest activity | 
8 | CC(=NNC(=N)NN=C(C)c1ccccn1)c1ccccn1.Cl [NCL172] | greatest activity |  | 
9 | Cl.N=C(NN=Cc1ccc(SC(F)(F)F)cc1)NN=Cc1ccc(SC(F)(F)F)cc1 [NCL166] | greatest activity | greatest activity | 
10 | Clc1ccc(/C=N/Nc2cc(N/N=C/c3ccc(Cl)cc3)ncn2)cc1 [NCL181] | greatest activity | greatest activity | 
11 | Cl.N=C(NN=Cc1cccc(Br)c1)NN=Cc1cccc(Br)c1 [NCL131] |  | greatest activity | 
12 | Cl.N=C(NN=CC(=Cc1ccccc1)c1ccccc1)NN=CC(=Cc1ccccc1)c1ccccc1 [NCL138] | greatest activity |  | 
13 | CC(Nc1cnc(NC(C)c2ccc(Cl)cc2)cn1)c1ccc(Cl)cc1 (stereo not drawn) [NCL186] | greatest activity | greatest activity | 
14 | Cl.Clc1ccc(/C=N/Nc2cc(N/N=C/c3ccc(Cl)cc3)ncn2)cc1 [NCL187] | greatest activity | greatest activity | 
15 | Cl.N=C(N)NN=C(C(=O)O)c1ccccc1 [NCL192] | greatest activity | greatest activity | 
16 | OC/C(=N\Nc1cc(N/N=C(\CO)c2ccc(Cl)cc2)ncn1)c1ccc(Cl)cc1 [NCL180] | greatest activity | greatest activity | 32 µg/mL
17 | COc1cc(/C=N/NC(=N)N/N=C/c2ccc(O)c(OC)c2)ccc1O.Cl [NCL117] | greatest activity | greatest activity | 
18 | COc1ccc(C=CC=NNC(=N)NN=CC=Cc2ccc(OC)cc2)cc1.Cl [NCL150] | greatest activity |  | 
19 | Cl.N=C(NN=Cc1ccc(OC(F)(F)F)cc1)NN=Cc1ccc(OC(F)(F)F)cc1 [NCL160] | greatest activity | greatest activity | 
